What was measured:
Cathepsin D (CatD) = Cathepsin D (CatD) (Homo sapiens (Human), UniProt P07339); assay: CatD assay; format: biochemical; details: read-out: IC50 IP (μM) CatD
BACE1 [1] = biological target: T1, BACE1 (Homo sapiens (Human), UniProt P56817); assay: BACE1 cell assay; format: cell-based
Target sequence in this assay (P56817 46-501, species assumed): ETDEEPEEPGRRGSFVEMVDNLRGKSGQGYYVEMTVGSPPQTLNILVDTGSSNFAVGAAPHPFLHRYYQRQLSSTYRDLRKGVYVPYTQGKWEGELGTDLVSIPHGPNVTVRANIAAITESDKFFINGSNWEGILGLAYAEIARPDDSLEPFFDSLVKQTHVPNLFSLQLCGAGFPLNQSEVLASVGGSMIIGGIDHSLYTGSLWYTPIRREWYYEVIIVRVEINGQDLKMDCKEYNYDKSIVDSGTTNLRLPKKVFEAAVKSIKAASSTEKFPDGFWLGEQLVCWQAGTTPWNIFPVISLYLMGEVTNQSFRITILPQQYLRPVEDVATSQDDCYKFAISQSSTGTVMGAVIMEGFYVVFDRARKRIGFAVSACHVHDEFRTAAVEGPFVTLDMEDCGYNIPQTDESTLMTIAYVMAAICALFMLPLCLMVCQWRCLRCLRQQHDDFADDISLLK

Aβ 40 = assay: In vivo inhibition of beta-secretase: Aβ 40 reduction in rat CSF and brain; details: after 4 hrs, versus vehicle;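 note: male Sprague Dawley rats dosed orally in 2% HPMC, 1% Tween80 (pH 2.2) vehicle, Aβ40 quantified by sandwich ECL-based ELISA in CSF and brain supernatants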
Source text: Several animal models, including mouse, rat, dog, and monkey, may be used to screen for inhibition of beta-secretase activity in vivo following administration of a test compound sample. […] A separate group of animals receive 2% hydroxypropyl methylcellulose, 1% Tween80 alone, containing no test compound, and serve as a vehicle-control group. At the end of the test period, animals are sacrificed and brain tissues, plasma or cerebrospinal fluid are collected. […] Homogenates are centrifuged at 355,000 g, 4° C. for 30 minutes. CSF or brain supernatants are then analyzed for the presence of Aβ by specific sandwich ELISA assays based on ECL (Electrochemiluminescence) technology. For example, rat Abeta40 is measured using biotinylated-4G8 (Signet) as a capture antibody and Fab40 (an in-house antibody specific to the C-terminal of Abeta40) as a detection antibody. […] Actual vehicles used: Oral: 2% HPMC, 1% Tween80, pH 2.2

BACE2 = BACE2 (Homo sapiens (Human), UniProt Q9Y5Z0); assay: In vitro enzymatic BACE2 FRET assay; format: biochemical; details: read-out: IC50 IP (μM) BACE2 Enzyme
BACE2, sequence (Q9Y5Z0 63-518): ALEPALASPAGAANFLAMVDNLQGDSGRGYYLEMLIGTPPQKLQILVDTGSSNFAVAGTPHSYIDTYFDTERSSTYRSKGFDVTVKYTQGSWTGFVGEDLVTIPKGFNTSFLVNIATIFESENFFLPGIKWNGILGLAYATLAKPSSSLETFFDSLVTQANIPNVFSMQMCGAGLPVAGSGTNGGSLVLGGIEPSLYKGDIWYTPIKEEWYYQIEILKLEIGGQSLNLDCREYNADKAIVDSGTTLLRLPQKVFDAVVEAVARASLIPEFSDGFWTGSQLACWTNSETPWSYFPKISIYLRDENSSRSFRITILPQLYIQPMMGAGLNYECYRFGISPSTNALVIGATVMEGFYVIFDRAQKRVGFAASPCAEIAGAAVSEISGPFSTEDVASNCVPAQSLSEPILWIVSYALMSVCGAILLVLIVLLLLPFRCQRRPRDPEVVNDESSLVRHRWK
Source text: (§1) In Vitro Enzymatic BACE1 and BACE2 FRET (Fluorescence Resonance Energy Transfer) Assays (Enzyme Assay Data in Table 1)

BACE1 [2] = biological target: T1, BACE1; assay: In vitro enzymatic BACE1 FRET assay; format: biochemical; details: read-out: IC50 IP (μM) BACE1 Enzyme
Target sequence in this assay (P56817 46-501): as the sequence (P56817 46-501, species assumed) above
Source text: as §1

BACE1 [3] = biological target: T1, BACE1; details: cited from earlier work
Target sequence in this assay (P56817 46-501): as the sequence (P56817 46-501, species assumed) above

[4] = test system: pigment epithelium of the rat's eye; details: higher compound dose given for three months; cited from earlier work

Cathepsin D (CatD), sequence (P07339 65-412, species assumed): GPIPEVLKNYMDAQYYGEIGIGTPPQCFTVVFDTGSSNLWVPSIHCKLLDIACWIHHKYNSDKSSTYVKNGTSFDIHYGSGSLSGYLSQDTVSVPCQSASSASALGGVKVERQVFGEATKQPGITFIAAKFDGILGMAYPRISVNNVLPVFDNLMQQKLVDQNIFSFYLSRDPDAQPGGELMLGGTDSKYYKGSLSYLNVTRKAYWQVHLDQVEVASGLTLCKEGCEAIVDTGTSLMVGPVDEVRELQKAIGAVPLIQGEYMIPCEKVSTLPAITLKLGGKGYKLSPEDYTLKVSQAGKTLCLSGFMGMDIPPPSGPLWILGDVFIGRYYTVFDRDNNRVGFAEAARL

Row | SMILES | IC50 (Cathepsin D (CatD)) | IC50 (BACE1 [1]) | % Aβ 40 reduction in rat CSF at 10 mpk (Aβ 40) | % Aβ 40 reduction in rat brain at 10 mpk (Aβ 40) | IC50 (BACE2) | IC50 (BACE1 [2]) | IC50 (BACE1 [1]; read-out: IC50 IP (μM) BACE1 Cell) | safety and tolerability (BACE1 [3]; in vivo) | Aβ reductions in lumbar CSF (BACE1 [3]; oral dosing of 30 or 90 mg) | eye toxicity finding in rat toxicology studies [4]
1 | C#CCOc1cnc(/C(F)=C/c2cnc(F)c([C@@]3(C)N=C(N)S[C@@]4(C(=O)N5CCOCC5)C[C@H]43)c2)cn1 [Example 301, ((1S,5S,6S)-3-amino-5-(2-fluoro-5-((Z)-2-fluoro-2-(5-(prop-2-yn-1-yloxy)pyrazin-2-yl)vinyl)pyridin-3-yl)-5-methyl-2-thia-4-azabicyclo[4.1.0]hept-3-en-1-yl)(morpholino)methanone] | 177 µM | 0.0045 µM | 48% | 41% | 0.309 µM | 0.0018 µM |  |  |  | 
2 | C#CCOc1cnc(/C(F)=C/c2ccc(F)c([C@@]3(C)N=C(N)S[C@@]4(C(=O)NCC(F)F)C[C@H]43)c2)cn1 [Example 302, (1S,5S,6S)-3-amino-N-(2,2-difluoroethyl)-5-(2-fluoro-5-((Z)-2-fluoro-2-(5-(prop-2-yn-1-yloxy)pyrazin-2-yl)vinyl)phenyl)-5-methyl-2-thia-4-azabicyclo[4.1.0]hept-3-ene-1-carboxamide] | 8.5 µM | 0.0047 µM | 62% | 55% | 0.109 µM | 0.0019 µM |  |  |  | 
3 | C[C@@H]1[C@H](F)CCN1C(=O)[C@]12C[C@H]1[C@@](C)(c1cc(/C=C(\F)c3ccc(C#N)cn3)ccc1F)N=C(N)S2 [Example 307, 6-((Z)-2-(3-((1S,5S,6S)-3-amino-1-((2R,3R)-3-fluoro-2-methylpyrrolidine-1-carbonyl)-5-methyl-2-thia-4-azabicyclo[4.1.0]hept-3-en-5-yl)-4-fluorophenyl)-1-fluorovinyl)nicotinonitrile] | 11 µM |  | 67% | 59% | 0.1 µM | 0.002 µM | 0.002 µM |  |  | 
4 | C[C@@]1(c2cc(-c3cncnc3)c(F)cc2F)CCSC(N)=N1 [LY2811376] |  |  |  |  |  |  |  | safe and well tolerated | Prominent and long-lasting Aβ reductions | 
5 | C[C@@]1(c2cc(-c3cncnc3)c(F)cc2F)CCSC(N)=N1 [LY 2811376] |  |  |  |  |  |  |  |  |  | damaged the pigment epithelium of the rat's eye
